Assay results as given in patent publication US12036291B2, “Probes for imaging huntingtin protein” (CHDI Foundation, Inc., priority 2014, dated 2024).

Target: T1, Q46 protein aggregates (Homo sapiens, UniProt P42858)
T1 construct: fused on or other part: GST at the N-terminus, cut off with thrombin before aggregation
Assay: Q46 Radioligand Binding Assay (RBA), displacement of [3H3]MK-3328
Conditions: 5 μM Q46 protein aggregates, 10 nM ligand [3H3]MK-3328, 60 minutes at 37° C.
Protocol: Q46 Radioligand Binding Assay
For radioligand binding assays (RBA) GST-Q46 protein was generated based on a previous publication (Scherzinger et al. Cell, Vol. 90, 549-558, Aug. 8, 1997). For experiments 33 μM GST-Q46 was incubated with 150 μg/ml thrombin in assay buffer (150 mM NaCl, 50 mM Tris pH 8.0) and 2 mM CaCl2 for 16 hr at 37° C. Aggregated Q46 was pelleted by centrifugation for 5 min at 13,000 rpm in a bench top centrifuge and re-dissolved in the same volume of assay buffer. Test compounds were prepared by titration in DMSO at 11 concentrations from 33 μM to 1 nM. For the RBA, Q46 protein aggregates and test compounds were pre-incubated in assay buffer for 20 min at room temperature, in 140 μL/well in a 96-well plate (pp, round bottom). Then, ligand was added in 10 μL/well and incubated for 60 minutes at 37° C. Final assay concentrations were […] test compound, 5 μM Q46 protein (equivalent monomer concentration) and 10 nM ligand [^3H3]MK-3328 (Harrision et al., ACS Med Chem. Lett., 2 (2011), pp 498-502). Samples were transferred onto GF/B filter plates and washed 2× with 200 μL PBS using a Filtermate Harvester. After drying filter plates for 1 hour at 37° C., the back of the plates was sealed with foil and 30 μL/well scintillation fluid (Packard MicroScint 40) was added, incubated for 15 min in the dark and counted in a TopCount reader. For analysis, replicate data from independent assay plates were normalized towards 0% and 100% inhibition using control wells of vehicle (0% inhibition) and 3 μM unlabelled MK-3328 (100% inhibition). IC50 values were determined with a sigmoidal inhibition model with four variables (top, bottom, slope, IC50) in a global fit using the normalized replicate data.

T1 sequence (P42858 with tags, fused parts or gaps with the stated changes, form open): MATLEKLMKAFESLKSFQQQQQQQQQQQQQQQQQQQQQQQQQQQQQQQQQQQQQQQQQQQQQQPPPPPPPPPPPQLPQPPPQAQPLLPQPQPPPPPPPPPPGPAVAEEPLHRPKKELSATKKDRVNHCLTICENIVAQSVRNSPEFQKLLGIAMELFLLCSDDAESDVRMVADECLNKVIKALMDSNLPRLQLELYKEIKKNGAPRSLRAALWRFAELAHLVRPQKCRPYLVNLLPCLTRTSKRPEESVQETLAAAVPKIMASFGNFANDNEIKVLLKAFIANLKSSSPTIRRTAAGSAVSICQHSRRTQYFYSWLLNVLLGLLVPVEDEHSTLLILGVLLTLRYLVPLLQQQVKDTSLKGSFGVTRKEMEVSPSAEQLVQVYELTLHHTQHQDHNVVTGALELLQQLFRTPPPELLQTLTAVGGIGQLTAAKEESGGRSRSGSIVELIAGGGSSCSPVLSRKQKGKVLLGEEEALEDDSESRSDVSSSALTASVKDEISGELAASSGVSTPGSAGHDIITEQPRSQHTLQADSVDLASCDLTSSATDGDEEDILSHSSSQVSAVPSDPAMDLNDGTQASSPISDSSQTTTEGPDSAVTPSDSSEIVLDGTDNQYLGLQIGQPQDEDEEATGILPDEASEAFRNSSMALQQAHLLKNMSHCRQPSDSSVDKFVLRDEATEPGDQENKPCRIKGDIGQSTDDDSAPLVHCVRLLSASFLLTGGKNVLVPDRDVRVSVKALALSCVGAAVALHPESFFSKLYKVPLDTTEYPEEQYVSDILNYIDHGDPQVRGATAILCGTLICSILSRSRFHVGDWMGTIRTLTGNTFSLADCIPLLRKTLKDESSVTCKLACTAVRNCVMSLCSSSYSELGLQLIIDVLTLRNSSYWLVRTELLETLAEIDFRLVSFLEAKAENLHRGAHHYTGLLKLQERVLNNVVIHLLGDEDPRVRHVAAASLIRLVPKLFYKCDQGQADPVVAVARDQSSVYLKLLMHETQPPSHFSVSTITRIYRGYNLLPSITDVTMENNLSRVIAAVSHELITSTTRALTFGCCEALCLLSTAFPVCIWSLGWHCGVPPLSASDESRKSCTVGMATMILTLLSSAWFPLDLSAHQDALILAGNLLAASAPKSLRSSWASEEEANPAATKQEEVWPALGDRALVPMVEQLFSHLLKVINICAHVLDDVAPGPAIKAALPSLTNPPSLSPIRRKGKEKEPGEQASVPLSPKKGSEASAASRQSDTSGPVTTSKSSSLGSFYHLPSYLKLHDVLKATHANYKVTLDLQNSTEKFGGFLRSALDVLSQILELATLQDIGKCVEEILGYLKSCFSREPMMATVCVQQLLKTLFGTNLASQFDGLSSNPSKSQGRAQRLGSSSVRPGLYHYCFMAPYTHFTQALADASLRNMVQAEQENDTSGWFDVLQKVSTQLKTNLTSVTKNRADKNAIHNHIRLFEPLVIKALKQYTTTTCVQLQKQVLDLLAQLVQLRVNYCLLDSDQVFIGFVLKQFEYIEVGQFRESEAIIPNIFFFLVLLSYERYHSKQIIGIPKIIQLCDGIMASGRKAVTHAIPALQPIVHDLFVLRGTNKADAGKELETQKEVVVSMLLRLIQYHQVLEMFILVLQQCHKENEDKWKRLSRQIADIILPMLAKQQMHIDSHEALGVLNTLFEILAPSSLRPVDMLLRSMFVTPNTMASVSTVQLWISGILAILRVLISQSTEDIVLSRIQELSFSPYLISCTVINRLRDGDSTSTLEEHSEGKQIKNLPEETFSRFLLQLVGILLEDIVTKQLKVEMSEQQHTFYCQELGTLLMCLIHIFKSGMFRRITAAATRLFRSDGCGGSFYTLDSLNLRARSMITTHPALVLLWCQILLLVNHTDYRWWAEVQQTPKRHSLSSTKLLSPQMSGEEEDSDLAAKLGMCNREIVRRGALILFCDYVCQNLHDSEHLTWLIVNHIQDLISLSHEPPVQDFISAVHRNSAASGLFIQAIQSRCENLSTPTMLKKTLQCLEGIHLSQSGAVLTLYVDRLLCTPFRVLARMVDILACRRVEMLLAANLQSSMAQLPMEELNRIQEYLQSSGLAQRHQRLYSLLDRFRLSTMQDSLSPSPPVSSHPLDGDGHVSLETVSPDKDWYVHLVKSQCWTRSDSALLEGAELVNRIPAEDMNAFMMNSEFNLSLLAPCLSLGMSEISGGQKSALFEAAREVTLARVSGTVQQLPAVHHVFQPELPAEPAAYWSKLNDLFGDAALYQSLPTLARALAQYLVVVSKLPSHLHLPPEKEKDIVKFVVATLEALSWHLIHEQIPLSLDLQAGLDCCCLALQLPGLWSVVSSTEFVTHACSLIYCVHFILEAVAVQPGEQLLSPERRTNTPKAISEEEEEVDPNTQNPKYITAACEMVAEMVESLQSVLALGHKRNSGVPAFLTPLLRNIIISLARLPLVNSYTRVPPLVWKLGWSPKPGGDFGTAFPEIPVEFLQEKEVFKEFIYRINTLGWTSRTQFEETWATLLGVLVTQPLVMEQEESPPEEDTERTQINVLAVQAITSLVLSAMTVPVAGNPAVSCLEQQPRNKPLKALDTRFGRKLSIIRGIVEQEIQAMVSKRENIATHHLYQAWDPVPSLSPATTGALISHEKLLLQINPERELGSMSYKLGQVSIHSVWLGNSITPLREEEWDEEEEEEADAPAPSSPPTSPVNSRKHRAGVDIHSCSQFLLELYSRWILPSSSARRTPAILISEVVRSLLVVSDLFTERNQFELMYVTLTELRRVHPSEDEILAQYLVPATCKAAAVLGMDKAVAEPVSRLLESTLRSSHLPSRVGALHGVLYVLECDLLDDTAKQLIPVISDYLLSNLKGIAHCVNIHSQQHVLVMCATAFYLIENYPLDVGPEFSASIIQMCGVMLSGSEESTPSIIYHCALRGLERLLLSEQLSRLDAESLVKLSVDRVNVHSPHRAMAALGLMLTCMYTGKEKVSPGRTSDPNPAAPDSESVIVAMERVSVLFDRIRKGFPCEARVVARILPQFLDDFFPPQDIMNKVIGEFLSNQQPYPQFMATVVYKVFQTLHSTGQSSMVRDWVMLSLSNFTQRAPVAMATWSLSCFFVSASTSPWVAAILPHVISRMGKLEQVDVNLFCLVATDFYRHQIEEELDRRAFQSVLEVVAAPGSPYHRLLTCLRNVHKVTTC

IC50 [nM] | Compound
< 100 | COc1ccc2c(c1)CN(c1ncccc1C#N)C2 [2-(5-methoxy-2,3-dihydro-1H-isoindol-2-yl)pyridine-3-carbonitrile]
< 100 | N#Cc1cccnc1N1Cc2ccc(OCc3cncnc3)cc2C1 [2-[5-(pyrimidin-5-ylmethoxy)-2,3-dihydro-1H-isoindol-2-yl]pyridine-3-carbonitrile]
< 100 | COc1ccc(COc2ccc3c(c2)CN(c2ncccc2C#N)C3)nc1 [2-{5-[(5-methoxypyridin-2-yl)methoxy]-2,3-dihydro-1H-isoindol-2-yl}pyridine-3-carbonitrile]
< 100 | N#Cc1cncnc1N1Cc2ccc(OCc3ccccc3)cc2C1 [4-[5-(benzyloxy)-2,3-dihydro-1H-isoindol-2-yl]pyrimidine-5-carbonitrile]
< 100 | COc1ccc2c(c1)CN(c1ncncc1C#N)C2 [4-(5-methoxy-2,3-dihydro-1H-isoindol-2-yl)pyrimidine-5-carbonitrile]

More lines, now with the values behind:

Compound | IC50 [nM]
COc1cnc(COc2ccc3c(c2)CN(c2ccncc2)C3)cn1 [5-[(5-methoxypyrazin-2-yl)methoxy]-2-(pyridin-4-yl)-2,3-dihydro-1H-isoindole] | < 100
COc1ccc(COc2ccc3c(c2)CN(c2ccc(=O)n(C)n2)C3)nc1 [6-{5-[(5-methoxypyridin-2-yl)methoxy]-2,3-dihydro-1H-isoindol-2-yl}-2-methyl-2,3-dihydropyridazin-3-one] | < 100
COc1ccc(COc2ccc3c(c2)CN(c2ccncc2C#N)C3)nc1 [4-{5-[(5-methoxypyridin-2-yl)methoxy]-2,3-dihydro-1H-isoindol-2-yl}pyridine-3-carbonitrile] | < 100
COc1ccc(COc2ccc3c(c2)CN(c2ccncc2)C3=O)nc1 [5-[(5-methoxypyridin-2-yl)methoxy]-2-(pyridin-4-yl)-2,3-dihydro-1H-isoindol-1-one] | < 100
N#Cc1cncnc1N1Cc2ccc(OCc3ccc(O)cn3)cc2C1 [4-{5-[(5-hydroxypyridin-2-yl)methoxy]-2,3-dihydro-1H-isoindol-2-yl}pyrimidine-5-carbonitrile] | < 100
COc1ccc(COc2ccc3c(c2)CN(c2ncncc2C#N)C3)nc1 [4-{5-[(5-methoxypyridin-2-yl)methoxy]-2,3-dihydro-1H-isoindol-2-yl}pyrimidine-5-carbonitrile] | < 100
N#Cc1cnccc1N1Cc2ccc(OCc3ccc(O)cn3)cc2C1 [4-{5-[(5-hydroxypyridin-2-yl)methoxy]-2,3-dihydro-1H-isoindol-2-yl}pyridine-3-carbonitrile] | < 100
COc1ccc2c(c1)CN(c1ccncc1C#N)C2 [4-(5-methoxy-2,3-dihydro-1H-isoindol-2-yl)pyridine-3-carbonitrile] | < 100
N#Cc1cnccc1N1Cc2ccc(OCc3cncnc3)cc2C1 [4-[5-(pyrimidin-5-ylmethoxy)-2,3-dihydro-1H-isoindol-2-yl]pyridine-3-carbonitrile] | < 100

System: recombinant tau and amyloid β1-42 (Aβ1-42) aggregates
Assay: not given
Conditions: higher affinity for the tau aggregates than Aβ1-42 aggregates; cited from earlier work

Compound | ratio of Kd values (affinity for tau aggregates versus Aβ1-42 aggregates)
CN(C)c1ccc(/C=C/c2nc3ccc(I)cc3[nH]2)cc1 [SBIM-3, 4-[(E)-2-(6-iodo-1H-benzimidazol-2-yl)ethenyl]-N,N-di methyl aniline] | 2.73

System: NFT in sections of AD brain tissue
Assay: not given
Conditions: in vitro autoradiography ([125I]SBIM-3) and fluorescent staining (SBIM-3); cited from earlier work

Compound | binding to NFT in sections of AD brain tissue
CN(C)c1ccc(/C=C/c2nc3ccc(I)cc3[nH]2)cc1 [SBIM-3, 4-[(E)-2-(6-iodo-1H-benzimidazol-2-yl)ethenyl]-N,N-di methyl aniline] | bound NFT in sections of AD brain tissue
